# Test results as given in patent US12351588B2, “Salt forms and solvates of Mcl-1 antagonists” (AMGEN INC., priority 2022, dated 2025).
# Structures can show the parent of a compound that is named as a salt.
# Key:
# [1] = Moisture sorption (DVS, VTI vapor sorption analyzer); format: physicochemical; settings: for weight gain (moisture sorption profile): by 95% relative humidity, 25° C.
# Method: Moisture Sorption: Moisture sorption data was collected at 25° C. using a VTI vapor sorption analyzer. A sample size of approximately 4-10 mg was used in a standard platinum pan. Hygroscopicity was evaluated from 5 to 95% RH in increments of 5% RH. Data for adsorption and desorption cycles were collected. Equilibrium criteria were set at 0.001% weight change in 10 minute with a maximum equilibration time of 180 minutes.
# [2] = Solubility of AMG 176 Form 1 in water under neutral conditions; format: physicochemical
Compound,weight gain (moisture sorption profile) [1],fate of the sorbed weight gain upon desorption ([1]; desorption after sorption to 95% relative humidity),solubility [2] [µg/mL]
CO[C@H]1/C=C/C[C@H](C)[C@@H](C)S(=O)(=O)NC(=O)c2ccc3c(c2)N(C[C@@H]2CC[C@H]21)C[C@@]1(CCCc2cc(Cl)ccc21)CO3 [crystalline potassium salt hydrate form of AMG 176],about 5%,lost upon desorption,–
CO[C@H]1/C=C/C[C@H](C)[C@@H](C)S(=O)(=O)NC(=O)c2ccc3c(c2)N(C[C@@H]2CC[C@H]21)C[C@@]1(CCCc2cc(Cl)ccc21)CO3 [AMG 176 Form 1],–,–,< 0.1
CO[C@H]1/C=C/C[C@H](C)[C@@H](C)S(=O)(=O)NC(=O)c2ccc3c(c2)N(C[C@@H]2CC[C@H]21)C[C@@]1(CCCc2cc(Cl)ccc21)CO3 [crystalline ammonium salt form of AMG 176],about 1.2%,–,–
